Assay results reported in US11771715B2 (Orna Therapeutics, Inc., priority 2019, dated 2023).

How the values were obtained:
[1] = Table 3, representative compounds of Formula (III); cited from earlier work
1C1C7 cells [2] = test: 5′ UTR variants in 1C1C7 cells (Ex. 54); format: cell-based; settings: CK IRES with 5′ UTR variants
Source text: This example describes modifications of circular RNAs by inserting 5′ UTR variants. […] 1C1C7 cells were transfected with the circular RNAs.

1C1C7 cells [3] = test: GLuc luminescence and functional stability by IRES in 1C1C7 cells (Ex. 8A); settings: 24 hours
1C1C7 cells [4] = test: Expression of anti-murine CD19 CAR by IRES variant in lipotransfected 1C1C7 cells (Ex. 41); format: cell-based; settings: 24 hours after lipotransfection
Method: After 24 hours, 1C1C7 cells were incubated with His-tagged recombinant murine CD19 (Sino Biological) protein, then stained with a secondary anti-His antibody. Afterwards, the cells were analyzed via flow cytometry.

HEK293 cells = test: GLuc luminescence by IRES in HEK293 cells (Ex. 8A); settings: 24 hours, 100 ng circularization reaction

Molecule: CCCCCCCCCCCCC(CCCCCCCCCC)C(=O)OCCCCCCN(CCCCO)CCCCOC(=O)C(CCCCCCCCCC)CCCCCCCCCCCC (stereo not drawn) [III-27]
- pKa [1]: 5.77

Molecule: UTR2: 5′ UTR variant: canonical Kozak with "a 36-nucleotide unstructured/low GC spacer sequence" added (DNA AATAAGAGAGAAAAGAAGAGTAAGAAGAAATATAAGAGCCACC; expressed or natural sequence)
- translation, luminescence (1C1C7 cells [2]): more effective

Molecule: UTR3: 5′ UTR variant: "a higher-GC/structured spacer with a kozak sequence" (DNA CGAACTAGTATTCTTCTGGTCCCCACAGACTCAGAGAGAACCCGCCACC; expressed or natural sequence)
- translation, luminescence (1C1C7 cells [2]): did not show the same benefit

B1: Salivirus A SZ-1 (nucleic acid)
DNA: TCTGTCCTCACCCCATCTTCCCTTCTTTCCTGCACCGTTACGCTTACTCGCATGTGCATTGAGTGGTGCACGTGCTTGAACAAACAGCTACACTCACATGGGGGCGGGTTTTCCCGCCCTGCGGCCTCTCGCGAGGCCCACCCCTCCCCTTCCTCCCATAACTACAGTGCTTTGGTAGGTAAGCATCCTGATCCCCCGCGGAAGCTGCTCACGTGGCAACTGTGGGGACCCAGACAGGTTATCAAAGGCACCCGGTCTTTCCGCCTTCAGGAGTATCCCTGCTAGTGAATTCTAGTAGGGCTCTGCTTGGTGCCAACCTCCCCCAAATGCGCGCTGCGGGAGTGCTCTTCCCCAACTCACCCTAGTATCCTCTCATGTGTGTGCTTGGTCAGCATATCTGAGACGATGTTCCGCTGTCCCAGACCAGTCCAGTAATGGACGGGCCAGTGTGCGTAGTCGTCTTCCGGCTTGTCCGGCGCATGTTTGGTGAACCGGTGGGGTAAGGTTGGTGTGCCCAACGCCCGTACTTTGGTGATACCTCAAGACCACCCAGGAATGCCAGGGAGGTACCCCGCTTCACAGCGGGATCTGACCCTGGGCTAATTGTCTACGGTGGTTCTTCTTGCTTCCACTTCTTTCTACTGTTCATG
- luminescence in supernatant (1C1C7 cells [3]): produced high luminescence

B2: parabovirus: "IRES sourced from the indicated virus" in circular RNA encoding anti-murine CD19 CAR (nucleic acid, listed as Parabovirus sp.)
DNA: TGAACCGTTACGCACCACTCAGTTGGTGTTTGGTGGCACCAATGATGGAACAAAAGGCTACACCACTTGGGCTACGGCCCGCGCCACCTTGTGGCGCAAAGACATTAGAAGAATAGCATACCGCCCACTAGGGCCCTGCAGCCAGCAGGGTAACGGGCAAGCACTTCTGTCTCCCCGGTAGAACGGTATAGGCTGTACCCACGGCCGAAAACTGAACTATCGTTACCCGACTCCGTACTTCGCAAAGCTTAGTAGGAAACTGGAAAGTTCGAGTTATTGACCCGGAGTGTTCCCCCCACTCCAGAAACGCGTGATGAGGGTTGCCACCCCGACCATGGCGACATGGTGGGCATCCCTGCGCTGGCACGCGGCCTCTAAGAGGATAACTCGCTCCTACTGGTAACCGAAGAGCCCCGTGAGCTACGGTTTATTCCTCCGCCTCCCTGAATGCGGCTAATCCTAACCCATGAGCAGTTGCCATAGATCCATATGGTGGACTGTCGTAACGCGTAAGTTGTGGGCGGAACCGACTACTTTGGGATGGCGTGTTTCCTTGTTTTCTCCATTTGTTGTTGTATGGTGACAAGTTATAGATCTCGATCTATAGCGTTTCTTGAGAGATTTCCAAACATTTATTCAAGTCGTACAATTCTTGTGTTTAAGCAGTACAGTGTAAGG
- expression of anti-mouse CD19 CAR (1C1C7 cells [4]): capable of driving expression

B3: Crohivirus B IRES: one of the "selected IRES sequences" modified (e.g., truncated); "SEQ ID NOs: 348-389" (nucleic acid)
DNA: GTATAAGAGACAGGTGTTTGCCTTGTCTTCGGACTGGCATCTTGGGACCAACCCCCCTTTTCCCCAGCCATGGGTTAAATGGCAATAAAGGACGTAACAACTTTGTAACCATTAAGCTTTGTAATTTTGTAACCACTAAGCTTTGTGCACATAATGTAACCATCAAGCTTGTTAGTCCCAGCAGGAGGTTTGCATGCTTGTAGCCGAAATGGGGCTCGACCCCCCATAGTAGGATACTTGATTTTGCATTCCATTGTGGACCTGCAAACTCTACACATAGAGGCTTTGTCTTGCATCTAAACACCTGAGTACAGTGTGTACCTAGACCCTATAGTACGGGAGGACCGTTTGTTTCCTCAATAACCCTACATAATAGGCTAGGTGGGCATGCCCAATTTGCAAGATCCCAGACTGGGGGTCGGTCTGGGCAGGGTTAGATCCCTGTTAGCTACTGCCTGATAGGGTGGTGCTCAACCATGTGTAGTTTAAATTGAGCTGTTCATATACC
modifications: Crohivirus B
- luminescence in supernatant (HEK293 cells): produced the highest luminescence
